# Read-outs that look alike come from different tables or passages of the source.
# Legend:
# [1] = tested on: SARS-CoV-2 Omicron XBB.1.5; test: microbe, parasite or virus in culture; assay type: cell-based
# [2] = tested on: SARS-CoV-2 Omicron CH.1.1; test: microbe, parasite or virus in culture; assay type: cell-based
# SARS-CoV-2 Omicron BA.1 = test: microbe, parasite or virus in culture; assay type: cell-based
# SARS-CoV-2 Omicron BA.4 = test: microbe, parasite or virus in culture; assay type: cell-based
# [3] = tested on: SARS-CoV-2 Omicron XBB.1.16; test: microbe, parasite or virus in culture; assay type: cell-based
# SARS-CoV-2 Omicron BA.5 = test: microbe, parasite or virus in culture; assay type: cell-based
# SARS-CoV-2 Omicron JN.1 = test: microbe, parasite or virus in culture; assay type: cell-based
# SARS-CoV-2 Omicron EG.5 = test: microbe, parasite or virus in culture; assay type: cell-based
# SARS-CoV-2 WIV04 = conditions: cited from earlier work
# SARS-CoV-2 Delta = conditions: cited from earlier work
# [4] = Severe acute respiratory syndrome coronavirus 2, Vero C1008, 48 h
# [5] = Severe acute respiratory syndrome coronavirus 2, Vero C1008, 72 h
molecule,measurement,setting,value
"CC(C)(C)[C@H](NC(=O)C(F)(F)F)C(=O)N1C[C@H]2[C@@H]([C@H]1C(=O)N[C@H](C#N)C[C@@H]1CCNC1=O)C2(C)C [nirmatrelvir, reference compound]",IC50,[1]; [4],22 ± 14 nM
same,IC90,[1]; [4],84 ± 39 nM
same,IC50,[2]; [4],26 ± 21 nM
same,IC90,[2]; [4],59 ± 26 nM
same,IC50,SARS-CoV-2 Omicron BA.1; [4],57 ± 12 nM
same,IC90,SARS-CoV-2 Omicron BA.1; [4],142 ± 61 nM
same,IC50,SARS-CoV-2 Omicron BA.4; [4],72 ± 13 nM
same,IC90,SARS-CoV-2 Omicron BA.4; [4],157 ± 77 nM
same,IC50,[3]; [5],101 ± 23 nM
same,IC90,[3]; [5],262 ± 140 nM
same,IC50,SARS-CoV-2 Omicron BA.5; [4],90 ± 38 nM
same,IC90,SARS-CoV-2 Omicron BA.5; [4],341 ± 140 nM
same,IC50,SARS-CoV-2 Omicron JN.1; [5],98 ± 27 nM
same,IC90,SARS-CoV-2 Omicron JN.1; [5],469 ± 183 nM
same,IC50,SARS-CoV-2 Omicron EG.5; [5],98 ± 26 nM
same,IC90,SARS-CoV-2 Omicron EG.5; [5],617 ± 170 nM
simnotrelvir,IC50,[1]; read-out: IC50,82 ± 58 nM
same,IC90,[1]; read-out: IC90,254 ± 111 nM
same,IC50,SARS-CoV-2 WIV04,26 nM
same,IC50,[2]; read-out: IC50,65 ± 6 nM
same,IC90,[2]; read-out: IC90,99 ± 52 nM
same,IC50,SARS-CoV-2 Omicron BA.1; read-out: IC50,148 ± 62 nM
same,IC90,SARS-CoV-2 Omicron BA.1; read-out: IC90,267 ± 82 nM
same,IC50,SARS-CoV-2 Omicron BA.4; read-out: IC50,189 ± 6 nM
same,IC90,SARS-CoV-2 Omicron BA.4; read-out: IC90,250 ± 67 nM
same,IC50,[3]; read-out: IC50,130 ± 20 nM
same,IC90,[3]; read-out: IC90,230 ± 93 nM
same,IC50,SARS-CoV-2 Omicron BA.5; read-out: IC50,208 ± 55 nM
same,IC90,SARS-CoV-2 Omicron BA.5; read-out: IC90,449 ± 171 nM
same,IC50,SARS-CoV-2 Omicron JN.1; read-out: IC50,124 ± 31 nM
same,IC90,SARS-CoV-2 Omicron JN.1; read-out: IC90,684 ± 188 nM
same,IC50,SARS-CoV-2 Delta,34 nM
same,IC50,SARS-CoV-2 Omicron EG.5; read-out: IC50,174 ± 97 nM
same,IC90,SARS-CoV-2 Omicron EG.5; read-out: IC90,803 ± 236 nM
